According to patent publication US7979946B2, “Polish and polishing mitts” (Kimberly-Clark Worldwide, Inc., priority 2006, dated 2011):
“Also recorded” adds a separate entry of the source.

Test system: mold
Experiment: Inhibition of mold growth in a polish applied to a mitt
Assay type: cell-based
Settings: chemical added to base polish (Pedag Deluxe Cream Polish), samples compared with each other
From the text: In each of the following Examples, a polish was applied to a mitt. The base polish was provided by Pedag USA, Inc. (Seattle) under the trade name Deluxe Cream Polish. […] The second sheet layer was constructed of a high-loft spunbond web of bicomponent polypropylene/polyethylene fibers with a side-by-side orientation laminated to a film of high density polyethylene on the inside surface. […] The first sheet layer and the second sheet layer were ultrasonically bonded leaving an opening for the insertion of two fingers (such as at seams 16 of FIGS. 1-3). Several different chemicals were tested to determine their ability to inhibit mold growth in a polish that has been applied to a mitt. For example, chloroacetamide, polyaminopropyl biguanide available under the name Cosmocil CQ from ICI Americas Inc., organosilicone quaternary ammonium compound available under the name AEM 5700 from Dow Chemical by Aegis Environmental Management (Midland, Mich.), a combination of combination of isothiazolones and N-/O-formals available under the name Parmetol DF35 from Schulke & Mayr, and methylparaben were each added to a base polish sample. The resulting polish samples were then applied to mitts. The ability of the polish to inhibit mold growth for each sample was then compared.

## COC(=O)c1ccc(O)cc1 [methylparaben]
  ability of the polish to inhibit mold growth: inhibited growth of mold better than the other tested chemicals; also recorded: best results of all samples

## CCC(=O)O [propanoic acid]
  ability of the polish to inhibit mold growth: inhibited growth of mold better than the other tested chemicals
